Experimental data as given in PMC4573928 (Cancer chemotherapy and pharmacology, 2015).
Several values for one entry are separate records, joined by “and”; a condition that tells them apart may be missing. Equal entries are not always repeated. Entries after “also recorded” stand apart in the source; their conditions may differ.

Tests used:
[1] = cited from earlier work
[2] = Human pilot pharmacokinetic study of IV and PO FdCyd and THU; settings: humans; after PO dosing; FC detected in 4 out of the 7 patients
[3] = Plasma pharmacokinetics of FdCyd, metabolites and THU in cynomolgus monkeys; settings: for Detection of metabolites in plasma: four animals; for Concentrations, fold lower than those of parent FdCyd: PO FdCyd 1 h after 500 mg/kg PO THU; for Detection in plasma: PO FdCyd at 1 and 10 mg/kg 1 h after PO THU; for AUC(0-inf): AUC0-inf; for AUC(0-t): AUC0-t
cynomolgus monkeys = settings: THU (500 mg/kg) and FdCyd (0.1, 1.0 or 10.0 mg/kg) PO QDx3 every week, 3 or 4 repeat 1 week cycles
[4] = monkeys, FdCyd 0.1 mg/kg PO 1 h after 500 mg/kg THU PO
[5] = both, cynomolgus monkey, plasma, iv, analyte FdCyd, FdCyd 8 mg/kg 3 h IV infusion with THU 30 mg/kg IV, N=2, mean (±SD)
[6] = both, cynomolgus monkey, plasma, po, 10 mg/kg, analyte FdCyd, FdCyd 10 mg/kg PO 1 h after THU 150 mg/kg PO, N=4, mean (±SD)
[7] = both, cynomolgus monkey, plasma, po, 10 mg/kg, analyte FdCyd, FdCyd 10 mg/kg PO 1 h after THU 500 mg/kg PO, N=4, mean (±SD)

Q: For `Nc1ncn([C@@H]2O[C@H](CO)[C@@H](O)[C@H]2O)c(=O)n1` [5-aza-cytidine], which Chemical stability [1] is on record?
A: unstable

Q: For `Nc1nc(=O)[nH]cc1F` [FC, 5-fluorocytosine], which “Overall maximum plasma concentration of FC observed” value [2] is on record?
A: 36.9 ng/mL

Q: And the FC in plasma ([3]; monkeys, 10 mg/kg FdCyd PO after 150 mg/kg THU PO)?
A: no FC was detected

Q: And the FC in plasma ([3]; monkeys, 10 mg/kg FdCyd PO after 150 mg/kg THU PO, listed as 5-FC)?
A: not after 150 mg/kg THU

Q: What about the FC in plasma ([3]; monkeys, 10 mg/kg FdCyd PO with 500 mg/kg THU PO) of the same compound?
A: Low levels of FC were also detected

Q: What about the FC in plasma ([3]; monkeys, 10 mg/kg FdCyd PO with 500 mg/kg THU PO, listed as 5-FC) of the same compound?
A: observed

Q: And the “Detection of metabolites in plasma” value [3, 4]?
A: No FU or FC was detected

Q: What does the source list for `O=c1[nH]cc(F)c(=O)[nH]1` [FU, 5-fluorouracil]?
A: Detection of metabolites in plasma [3, 4]: No FU or FC was detected; Concentrations, fold lower than those of parent FdCyd ([3]; monkeys): approximately 10 fold; Detection in plasma ([3]; monkeys): detectable plasma concentrations

Q: For `O=c1[nH]c(=O)n([C@@H]2O[C@H](CO)[C@@H](O)[C@H]2O)cc1F` [FUrd, 5-fluorouridine], which “FUrd peaks in plasma samples” value ([3]; any of the samples, detectable down to approximately 30 ng/mL) is on record?
A: no FUrd peaks were detected

Q: With `Nc1nc(=O)n([C@H]2C[C@H](O)[C@@H](CO)O2)cc1F` [FdCyd, 5-fluoro-2’-deoxycytidine] as the compound, how does the “Mortality and dose-limiting toxicity” value (cynomolgus monkeys) read?
A: did not result in any mortality or any signs of dose-limiting toxicity

Q: What about the AUC(0-inf) [3, 5] of the same compound?
A: 17800 ng·h/mL

Q: And the AUC(0-t) [3, 5]?
A: 17800 ng·h/mL

Q: What about the Cmax [3, 5] of the same compound?
A: 5690 ng/mL

Q: And the Tmax ([3]; both, cynomolgus monkey, plasma, iv, Tmax, analyte FdCyd, FdCyd 8 mg/kg 3 h IV infusion with THU 30 mg/kg IV, N=2, mean (±SD))?
A: 1.75 h

Q: What about the half-life ([3]; both, cynomolgus monkey, plasma, iv, T½, analyte FdCyd, FdCyd 8 mg/kg 3 h IV infusion with THU 30 mg/kg IV, N=2, mean (±SD)) of the same compound?
A: 0.87 h

Q: And the Tmax ([3]; both, cynomolgus monkey, plasma, po, 0.1 mg/kg, Tmax for FdCyd (mean), monkeys, FdCyd 0.1 mg/kg PO 1 h after 500 mg/kg THU PO)?
A: 0.25 h

Q: What about the Tmax ([3]; both, cynomolgus monkey, plasma, po, 1 mg/kg, Tmax for FdCyd (mean), monkeys, FdCyd 1 mg/kg PO 1 h after 500 mg/kg THU PO) of the same compound?
A: 0.5 h

Q: And the AUC(0-inf) [3, 6]?
A: 1930 ng·h/mL

Q: What about the AUC(0-inf) [3, 7] of the same compound?
A: 5400 ng·h/mL

Q: And the AUC(0-t) [3, 6]?
A: 1870 ng·h/mL

Q: And the AUC(0-t) [3, 7]?
A: 5280 ng·h/mL

Q: What about the CL/F [3, 6] of the same compound?
A: 126 mL/min/kg

Q: What about the CL/F [3, 7] of the same compound?
A: 53 mL/min/kg

Q: What about the Cmax [3, 6] of the same compound?
A: 1180 ng/mL

Q: What about the Cmax [3, 7] of the same compound?
A: 2030 ng/mL

Q: And the bioavailability ([3]; both, cynomolgus monkey, plasma, po, 10 mg/kg, F (PO bioavailability), analyte FdCyd, FdCyd 10 mg/kg PO 1 h after THU 150 mg/kg PO, relative to 4, 8, and 16 mg/kg FdCyd IV with 30 mg/kg THU)?
A: 8.9%

Q: What about the bioavailability ([3]; both, cynomolgus monkey, plasma, po, 10 mg/kg, F (PO bioavailability), analyte FdCyd, FdCyd 10 mg/kg PO 1 h after THU 500 mg/kg PO, relative to 4, 8, and 16 mg/kg FdCyd IV with 30 mg/kg THU) of the same compound?
A: 25%

Q: What about the Tmax ([3]; both, cynomolgus monkey, plasma, po, 10 mg/kg, Tmax for FdCyd (mean), monkeys, FdCyd 10 mg/kg PO 1 h after 500 mg/kg THU PO) of the same compound?
A: 1.38 h

Q: And the Tmax ([3]; both, cynomolgus monkey, plasma, po, 10 mg/kg, Tmax, analyte FdCyd, FdCyd 10 mg/kg PO 1 h after THU 150 mg/kg PO, N=4, mean (±SD))?
A: 1.25 h

Q: What about the Tmax ([3]; both, cynomolgus monkey, plasma, po, 10 mg/kg, Tmax, analyte FdCyd, FdCyd 10 mg/kg PO 1 h after THU 500 mg/kg PO, N=4, mean (±SD)) of the same compound?
A: 1.38 h

Q: What about the half-life ([3]; both, cynomolgus monkey, plasma, po, 10 mg/kg, T½, analyte FdCyd, FdCyd 10 mg/kg PO 1 h after THU 150 mg/kg PO, N=4, mean (±SD)) of the same compound?
A: 1.23 h

Q: What about the half-life ([3]; both, cynomolgus monkey, plasma, po, 10 mg/kg, T½, analyte FdCyd, FdCyd 10 mg/kg PO 1 h after THU 500 mg/kg PO, N=4, mean (±SD)) of the same compound?
A: 0.63 h

Q: And the half-life ([3]; both, cynomolgus monkey, plasma, po, Plasma terminal half-life of FdCyd, monkeys, range over groups receiving 0.1, 1.0, and 10 mg/kg PO FdCyd 1 h after 500 mg/kg PO THU)?
A: 0.4 to 2.7 h

Q: What about the clearance ([3]; both, cynomolgus, cynomolgus monkey, plasma, iv) of the same compound?
A: ~15 mL/min/kg

Q: And the half-life ([3]; both, cynomolgus, cynomolgus monkey, plasma, iv, FdCyd half-life, monkeys, after IV FdCyd and THU administration, range)?
A: 0.367 to 0.933 h

Q: And the bioavailability ([3]; both, cynomolgus, cynomolgus monkey, plasma, po, FdCyd PO bioavailability after THU, monkeys, range, increased with increasing THU dose)?
A: 9 to 25%

Q: What about the “Plasma concentrations of FdCyd or downstream metabolites” value ([3]; monkeys, 10 mg/kg PO FdCyd without THU, 10 mg/kg) of the same compound?
A: not detectable; also recorded: undetectable

Q: And the “Detectable plasma concentrations of FdCyd (range per animal)” value ([3]; monkeys, FdCyd 0.1 mg/kg PO 1 h after 500 mg/kg THU PO, two of four animals)?
A: 22.6 to 117.2 ng/mL and 34.1 to 152.2 ng/mL

Q: Which results are given for `O=c1[nH]c(=O)n([C@H]2C[C@H](O)[C@@H](CO)O2)cc1F` [FdUrd, 5-fluoro-2’-deoxyuridine]?
A: Detection of metabolites in plasma [3, 4]: three had detectable plasma concentrations of FdUrd out to 60 min; Concentrations, fold lower than those of parent FdCyd ([3]; monkeys): approximately 10 fold; Detection in plasma ([3]; monkeys): detectable plasma concentrations

Q: Which Chemical stability [1] does the source give for `Nc1ncn([C@H]2C[C@H](O)[C@@H](CO)O2)c(=O)n1` [decitabine] here?
A: unstable
